Results: patent US9445594B2, “Molecules having certain pesticidal utilities, intermediates, compositions, and processes, related thereto” (priority 2014, dated 2016)
Where two headings read alike, the source gives them in different places.

What was measured:
Assay type in all cases: in vivo
[1] = test system: Beet Armyworm (Spodoptera exigua, LAPHEG) ("BAW"); test: Bioassays on BAW, 128-well diet tray assay; settings: 168 h, read-out: BAW % Control (or Mortality) rating
Description: (§1) Certain molecules disclosed in this document were tested against BAW, CEW, and CL using procedures described in the following examples. In the reporting of the results, the “BAW, CEW, & CL Rating Table” was used (See Table Section).
Bioassays on BAW were conducted using a 128-well diet tray assay. one to five second instar BAW larvae were placed in each well (3 mL) of the diet tray that had been previously filled with 1 mL of artificial diet to which 50 μg/cm^2 of the test compound (dissolved in 50 μL of 90:10 acetone-water mixture) had been applied (to each of eight wells) and then allowed to dry. Trays were covered with a clear self-adhesive cover and held at 25° C., 14:10 light-dark for five to seven days. Percent mortality was recorded for the larvae in each well; activity in the eight wells was then averaged. The results are indicated in the table entitled “Table ABC: Biological Results” (See Table Section).

[2] = test system: Cabbage Looper (Trichoplusia ni, TRIPNI) ("CL"); test: Bioassays on CL, 128-well diet tray assay; settings: 168 h, read-out: CL % Control (or Mortality) rating
Description: as §1
Bioassays on CL were conducted using a 128-well diet tray assay. one to five second instar CL larvae were placed in each well (3 mL) of the diet tray that had been previously filled with 1 mL of artificial diet to which 50 μg/cm^2 of the test compound (dissolved in 50 μL of 90:10 acetone-water mixture) had been applied (to each of eight wells) and then allowed to dry. Trays were covered with a clear self-adhesive cover and held at 25° C., 14:10 light-dark for five to seven days. Percent mortality was recorded for the larvae in each well; activity in the eight wells was then averaged. The results are indicated in the table entitled “Table ABC: Biological Results” (See Table Section).

[3] = test system: Yellow Fever Mosquito (Aedes aegypti, AEDSAE) ("YFM"); test: Bioassays on YFM, 96-well plate larval assay; settings: about 1 day-old larvae, from 4000 ppm DMSO master plate diluted, room temperature, scored after 3 days
Description: Certain molecules disclosed in this document were tested against YFM using procedures described in the following paragraph. In the reporting of the results, the “YFM Rating Table” was used (See Table Section).
Master plates containing 400 μg of a molecule dissolved in 100 μL of dimethyl sulfoxide (DMSO) (equivalent to a 4000 ppm solution) are used. A master plate of assembled molecules contains 15 μL per well. To this plate, 135 μL of a 90:10 water:acetone mixture is added to each well. A robot (Biomek® NXP Laboratory Automation Workstation) is programmed to dispense 15 μL aspirations from the master plate into an empty 96-well shallow plate (“daughter” plate). There are 6 reps (“daughter” plates) created per master. The created daughter plates are then immediately infested with YFM larvae.
The day before plates are to be treated, mosquito eggs are placed in Millipore water containing liver powder to begin hatching (4 g. into 400 mL). After the daughter plates are created using the robot, they are infested with 220 μL of the liver powder/larval mosquito mixture (about 1 day-old larvae). After plates are infested with mosquito larvae, a non-evaporative lid is used to cover the plate to reduce drying. Plates are held at room temperature for 3 days prior to grading. After 3 days, each well is observed and scored based on mortality.

[4] = second instar larvae, 50 μg/cm^2 on artificial diet, 25° C., five to seven days, average of eight wells

CSc1ccccc1-c1ccccc1NC(=S)Nc1ccc(-c2ncn(-c3ccc(OC(F)(F)F)cc3)n2)cc1 [F42, 1-(2′-(Methylthio)-[1,1′-biphenyl]-2-yl)-3-(4-(1-(4-(trifluoromethoxy)phenyl)-1H-1,2,4-triazol-3-yl)phenyl)thiourea]
mortality at 50 µg/cm2 [1, 4]: 50 to 100%
mortality at 50 µg/cm2 [2, 4]: 50 to 100%
YFM % Control (or Mortality) rating [3]: B (More than 0 - Less than 80)

CC(C)c1ccccc1NC(=O)NCCCc1ccc(-c2ncn(-c3ccc(OC(F)(F)F)cc3)n2)cc1 [F78, 1-(2-Isopropylphenyl)-3-(3-(4-(1-(4-(trifluoromethoxy)phenyl)-1H-1,2,4-triazol-3-yl)phenyl)propyl)urea]
mortality at 50 µg/cm2 [1, 4]: 50 to 100%
mortality at 50 µg/cm2 [2, 4]: 50 to 100%
YFM % Control (or Mortality) rating [3]: A (80-100)

CC(C)c1ccccc1NC(=S)NCCCc1ccc(-c2ncn(-c3ccc(OC(F)(F)F)cc3)n2)cc1 [F76, 1-(2-isopropylphenyl)-3-(3-(4-(1-(4-(trifluoromethoxy)phenyl)-1H-1,2,4-triazol-3-yl)phenyl)propyl)thiourea]
mortality at 50 µg/cm2 [1]: 50 to 100%
mortality at 50 µg/cm2 [2]: 50 to 100%
YFM % Control (or Mortality) rating [3]: A (80-100)

CC(C)c1ccccc1NC(=S)NCc1ccc(-c2ncn(-c3ccc(OC(F)(F)F)cc3)n2)cc1 [F45, 1-(2-isopropylphenyl)-3-(4-(1-(4-(trifluoromethoxy)phenyl)-1H-1,2,4-triazol-3-yl)benzyl)thiourea]
mortality at 50 µg/cm2 [1, 4]: 0 to 50%
mortality at 50 µg/cm2 [2, 4]: 50 to 100%
YFM % Control (or Mortality) rating [3]: A (80-100)

CCc1ccccc1NC(=O)NCCCc1ccc(-c2ncn(-c3ccc(OC(F)(F)F)cc3)n2)cc1 [F86, 1-(2-Ethylphenyl)-3-(3-(4-(1-(4-(trifluoromethoxy)phenyl)-1H-1,2,4-triazol-3-yl)phenyl)propyl)urea]
mortality at 50 µg/cm2 [1, 4]: 50 to 100%
mortality at 50 µg/cm2 [2, 4]: 50 to 100%
YFM % Control (or Mortality) rating [3]: A (80-100)

O=C(Nc1ccc(-c2ncn(-c3ccc(OC(F)(F)C(F)(F)F)cc3)n2)cc1)Nc1ccccc1OC(F)(F)F [F1, 1-(4-(1-(4-(Perfluoroethoxy)phenyl)-1H-1,2,4-triazol-3-yl)phenyl)-3-(2-(trifluoromethoxy)phenyl)urea]
mortality at 50 µg/cm2 [1, 4]: 0%
mortality at 50 µg/cm2 [2, 4]: 50 to 100%
YFM % Control (or Mortality) rating [3]: D (No activity noticed in this bioassay)

COc1cccc(NC(=O)NCc2ccc(-c3ncn(-c4ccc(OC(F)(F)F)cc4)n3)cc2)c1 [F107, 1-(3-Methoxyphenyl)-3-(4-(1-(4-(trifluoromethoxy)phenyl)-1H-1,2,4-triazol-3-yl)benzyl)urea]
mortality at 50 µg/cm2 [1, 4]: 0%
mortality at 50 µg/cm2 [2, 4]: 0%
YFM % Control (or Mortality) rating [3]: B (More than 0 - Less than 80)

O=C(Nc1ccc(-c2ncn(-c3ccc(OC(F)(F)F)cc3)n2)cc1)Nc1ccccc1C(F)(F)F [F64, 1-(4-(1-(4-(trifluoromethoxy)phenyl)-1H-1,2,4-triazol-3-yl)phenyl)-3-(2-(trifluoromethyl)phenyl)urea]
mortality at 50 µg/cm2 [1, 4]: 50 to 100%
mortality at 50 µg/cm2 [2, 4]: 50 to 100%
YFM % Control (or Mortality) rating [3]: B (More than 0 - Less than 80)

O=C(NCCCCc1ccc(-c2ncn(-c3ccc(OC(F)(F)F)cc3)n2)cc1)Nc1cccc(Cl)c1 [F93, 1-(3-Chlorophenyl)-3-(4-(4-(1-(4-(trifluoromethoxy)phenyl)-1H-1,2,4-triazol-3-yl)phenyl)butyl)urea]
mortality at 50 µg/cm2 [1, 4]: 0%
mortality at 50 µg/cm2 [2, 4]: 50 to 100%
YFM % Control (or Mortality) rating [3]: D (No activity noticed in this bioassay)

COc1ccc(NC(=O)NCCCCc2ccc(-c3ncn(-c4ccc(OC(F)(F)F)cc4)n3)cc2)cc1 [F97, 1-(4-Methoxyphenyl)-3-(4-(4-(1-(4-(trifluoromethoxy)phenyl)-1H-1,2,4-triazol-3-yl)phenyl)butyl)urea]
mortality at 50 µg/cm2 [1, 4]: 0 to 50%
mortality at 50 µg/cm2 [2, 4]: 0%
YFM % Control (or Mortality) rating [3]: D (No activity noticed in this bioassay)

CC(C)c1ccccc1NC(=O)NCCCCc1ccc(-c2ncn(-c3ccc(OC(F)(F)F)cc3)n2)cc1 [F90, 1-(2-Isopropylphenyl)-3-(4-(4-(1-(4-(trifluoromethoxy)phenyl)-1H-1,2,4-triazol-3-yl)phenyl)butyl)urea]
mortality at 50 µg/cm2 [1, 4]: 0%
mortality at 50 µg/cm2 [2, 4]: 0%
YFM % Control (or Mortality) rating [3]: D (No activity noticed in this bioassay)

CC(C)c1ccccc1NC(=O)Nc1ccc(-c2ncn(-c3ccc(OC(F)(F)C(F)(F)F)cc3)n2)cc1 [F54, 1-(2-Isopropylphenyl)-3-(4-(1-(4-(perfluoroethoxy)phenyl)-1H-1,2,4-triazol-3-yl)phenyl)urea]
mortality at 50 µg/cm2 [1, 4]: 50 to 100%
mortality at 50 µg/cm2 [2, 4]: 50 to 100%
YFM % Control (or Mortality) rating [3]: D (No activity noticed in this bioassay)

COc1cccc(NC(=O)NCCCc2ccc(-c3ncn(-c4ccc(OC(F)(F)F)cc4)n3)cc2)c1 [F80, 1-(3-Methoxyphenyl)-3-(3-(4-(1-(4-(trifluoromethoxy)phenyl)-1H-1,2,4-triazol-3-yl)phenyl)propyl)urea]
mortality at 50 µg/cm2 [1, 4]: 50 to 100%
mortality at 50 µg/cm2 [2, 4]: 50 to 100%
YFM % Control (or Mortality) rating [3]: A (80-100)

Cc1cccc(NC(=O)NCc2ccc(-c3ncn(-c4ccc(OC(F)(F)F)cc4)n3)cc2)c1 [F108, 1-(m-Tolyl)-3-(4-(1-(4-(trifluoromethoxy)phenyl)-1H-1,2,4-triazol-3-yl)benzyl)urea]
mortality at 50 µg/cm2 [1, 4]: 0%
mortality at 50 µg/cm2 [2, 4]: 0%
YFM % Control (or Mortality) rating [3]: D (No activity noticed in this bioassay)

O=C(NCc1ccc(-c2ncn(-c3ccc(OC(F)(F)F)cc3)n2)cc1)Nc1cccc(Cl)c1 [F103, 1-(3-Chlorophenyl)-3-(4-(1-(4-(trifluoromethoxy)phenyl)-1H-1,2,4-triazol-3-yl)benzyl)urea]
mortality at 50 µg/cm2 [1, 4]: 0 to 50%
mortality at 50 µg/cm2 [2, 4]: 50 to 100%
YFM % Control (or Mortality) rating [3]: A (80-100)

O=C(Nc1ccc(-c2ncn(-c3ccc(OC(F)(F)C(F)(F)F)cc3)n2)cc1)Nc1ccccc1C1CC1 [F15, 1-(2-Cyclopropylphenyl)-3-(4-(1-(4-(perfluoroethoxy)phenyl)-1H-1,2,4-triazol-3-yl)phenyl)urea]
mortality at 50 µg/cm2 [1, 4]: 50 to 100%
mortality at 50 µg/cm2 [2, 4]: 50 to 100%
YFM % Control (or Mortality) rating [3]: B (More than 0 - Less than 80)

COc1ccccc1NC(=O)NCCCCc1ccc(-c2ncn(-c3ccc(OC(F)(F)F)cc3)n2)cc1 [F95, 1-(2-Methoxyphenyl)-3-(4-(4-(1-(4-(trifluoromethoxy)phenyl)-1H-1,2,4-triazol-3-yl)phenyl)butyl)urea]
mortality at 50 µg/cm2 [1, 4]: 0%
mortality at 50 µg/cm2 [2, 4]: 50 to 100%
YFM % Control (or Mortality) rating [3]: D (No activity noticed in this bioassay)

COc1ccccc1NC(=O)NCCCc1ccc(-c2ncn(-c3ccc(OC(F)(F)F)cc3)n2)cc1 [F81, 1-(2-Methoxyphenyl)-3-(3-(4-(1-(4-(trifluoromethoxy)phenyl)-1H-1,2,4-triazol-3-yl)phenyl)propyl)urea]
mortality at 50 µg/cm2 [1, 4]: 50 to 100%
mortality at 50 µg/cm2 [2, 4]: 50 to 100%
YFM % Control (or Mortality) rating [3]: B (More than 0 - Less than 80)
